Data as given in patent publication US5430063A, “Phenoxyphenyl derivatives, compositions thereof and methods for their use” (Akzo N.V., priority 1991, dated 1995).
Like-named read-outs stand apart in the source and are kept apart here.

Assay: biological half-life for sleep-wake behaviour in rats
Details: rat, in vivo
Description: The biological half-lives of the phenoxyphenyl derivatives were determined for the sleep-wake behaviour in rats and compared with the half-lives of the prior art compounds.

[1] = biological half-life, sleep-wake behaviour in rats, read-out: half-life (converted)

SMILES | half-life [h] | half-life [1] [h]
NCc1ccccc1Sc1ccccc1 [2-(phenylthio)benzenemethanamine, reference compound] | 0.5 | –
COc1ccc(Sc2ccccc2CN)cc1 [2-[(4-methoxyphenyl)thio]-benzenemethanamine, reference compound] | < 0.5 | –
Cl.NCc1ccccc1Oc1ccc(Cl)cc1 [Example 1, 2-(4-chlorophenoxy)benzenemethanamine hydrochloride] | – | 1 to 2.5
Cl.NCc1ccccc1Oc1ccc(Cl)c(Cl)c1 [Example 2, 2-(3,4-dichlorophenoxy)benzenemethanamine hydrochloride] | – | 2.5
CN(C)Cc1ccccc1Oc1ccc(Cl)cc1.O=C(O)/C=C\C(=O)O [Example 4, 2-(4-chlorophenoxy)-N,N-dimethylbenzenemethanamine (Z)-2-butenedioate] | 1 | –
Clc1ccc(Oc2ccccc2C2=NCCN2)cc1.O=C(O)/C=C\C(=O)O [Example 5, 2-[2-(4-chlorophenoxy)phenyl]-4,5-dihydro-1H-imidazole (Z)-2-butenedioate] | – | 3
Clc1ccc(Oc2ccccc2C2=NCCN2)cc1Cl.O=C(O)/C=C\C(=O)O [Example 6a, 2-[2-(3,4-dichlorophenoxy)phenyl]-4,5-dihydro-1H-imidazole (Z)-2-butenedioate] | 1.5 to 2.5 | –
